One assay deals with MV4;11 cells. The assay can be described thus: Cell proliferation experiment (Alamar blue, 72 h), MV4;11. The conditions noted are these: Homo sapiens. The assay is classed as cell-based, human. The essentials:
(§1)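 Cells were passaged at least twice, harvested in log phase and plated in 96 wells. Compound in complete medium was added at 5-fold gradient concentrations, duplicates per concentration. After 72 h culture, Alamar blue fluorescence was measured and IC50 fitted.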

In the next assay the test system is Daudi cells. The assay can be described thus: Cell proliferation experiment, Daudi. The assay is classed as cell-based, human. The conditions noted are these: Homo sapiens, Daudi. The essentials:
as §1

Another assay concerns NCIH82 cells. Kind of assay: Cell proliferation experiment, NCI-H82. The conditions noted are these: Homo sapiens. The assay is classed as cell-based, human. The essentials: as §1
The subject of the next assay is HT-29 cells. The assay can be described thus: Cell proliferation experiment, HT-29. The assay is classed as cell-based. The conditions noted are these: Homo sapiens, read-out: Inhibitory activity IC50 of tested compounds on HT-29 cells. How it is done:
(§2) Reagents: RPMI-1640 medium, McCoy's 5A medium, IMDM medium, MEM medium, L-15 medium, fetal bovine serum. Penicillin-Streptomycin double antibody, trypsin, etc., 2-mercaptoethanol, NEAA, pyruvate, etc.
(§3) The cells were cultured in conventional ways, and the cells should be passed at least 2 generations before plating. Cells at the logarithmic growth phase were collected, prepared into single cell suspensions and counted. The concentration of cells was adjusted to the desired concentration, and cells were inoculated into a 96-well cell culture plate at 100 μl per well. 100 μL of complete medium of the test compound were added to each well, set up 2 duplicate wells for each concentration, and diluted with a 5-fold gradient, and continued to culture for 72 h. All cells were subjected to IC50 test for corresponding samples. The experimental results are shown in Test Example 4.
(§4) The fluorescence intensity of each well was detected using the Alarm blue method, and IC50 was calculated.
(§5) IC50 was calculated according to the following formula:
(§6) Y=Max+(Min−Max)/[1+(X/IC50)×Slope]
(§7) wherein Min, Max and Slope represent the minimum, maximum and slope respectively.

The test system of the next assay is U-87MG cells. The assay can be described thus: Cell proliferation experiment, U-87MG. The assay is classed as cell-based. The conditions noted are these: Homo sapiens, 72 h, read-out: Inhibitory activity IC50 of tested compounds on U-87MG cells. How it is done: as §2, §3, §4, §5, §6, §7
In a further assay the test system is MDA-MB-231 cells. The assay can be described thus: Cell proliferation experiment, MDA-MB-231. The assay is classed as cell-based, human. To be noted: Homo sapiens, MDA-MB-231, MDA-MB-231 cells; read-out: Inhibitory activity IC50 on MDA-MB-231. Put shortly: as §1
Another assay relates to PC-3. Kind of assay: Cell proliferation experiment, PC-3. The assay is classed as cell-based, human. The conditions noted are these: Homo sapiens, PC-3, PC-3 cells; read-out: Inhibitory activity IC50 on PC-3. Put shortly: as §1
Where [1] appears, read: MV4-11, 72 h, MV4;11 cells, 72 h, read-out: Inhibitory activity IC50 of tested compounds on MV4;11 cells.
Setting [2] is: 72 h, Daudi cells, 72 h, read-out: Inhibitory activity IC50 of tested compounds on Daudi cells.
[3] abbreviates: NCI-H82, 72 h, NCIH82 cells, 72 h, read-out: Inhibitory activity IC50 of tested compounds on NCIH82 cells.
Where [4] appears, read: MV4-11, MV4;11 cells, read-out: Inhibitory activity IC50 on MV4;11.
Where [5] appears, read: Daudi cells, read-out: Inhibitory activity IC50 on Daudi.
The mark [6] stands for this setting: NCI-H82, NCI-H82 cells, read-out: Inhibitory activity IC50 on NCI-H82.

Each structure is given as a SMILES string. Read-outs that look alike come from different tables or passages of the source. Some results are limits rather than exact numbers.

In the case of `CC[C@@H]1C(=O)N(C)c2cnc(Nc3ccc(C(=O)NC4CCN(CCOCCNCC(=O)NC(C(=O)N5C[C@H](O)C[C@H]5C(=O)NCc5ccc(-c6scnc6C)cc5)C(C)(C)C)CC4)cc3OC)nc2N1C1CCCC1` (some centres unmarked) [Compound 859], the IC50 with MV4;11 cells (MV4-11, 72 h, read-out: Inhibitory activity IC50 of tested compounds on MV4;11 cells) was 0.1 to 1 µM; in the assay with Daudi cells (72 h, read-out: Inhibitory activity IC50 of tested compounds on Daudi cells), over 1 µM; with NCIH82 cells (NCI-H82, 72 h, read-out: Inhibitory activity IC50 of tested compounds on NCIH82 cells) it was over 1 µM; with HT-29 cells (HT-29, 72 h) it was over 1 µM; with U-87MG cells (U-87 MG), over 1 µM.
`CC[C@@H]1C(=O)N(C)c2cnc(Nc3ccc(C(=O)NC4CCN(CCCOCCCNCCCC#Cc5cccc6c5CN(C5CCC(=O)NC5=O)C6=O)CC4)cc3OC)nc2N1C1CCCC1` (some centres unmarked) [Compound 917]: the IC50 is at most 0.1 µM with MV4;11 cells (setting [1]); at most 0.1 µM in the assay on Daudi cells (setting [2]); at most 1 µM with NCIH82 cells (setting [3]); 0.3 to 1 µM in the assay on HT-29 cells (HT-29 cells, 72 h); 0.1 to 0.5 µM in the assay with U-87MG cells (U-87MG cells).
In the case of `CC[C@@H]1C(=O)N(C)c2cnc(Nc3ccc(C(=O)NC4CCN(CCCNCCOCCCC#Cc5cccc6c5CN(C5CCC(=O)NC5=O)C6=O)CC4)cc3OC)nc2N1C1CCCC1` (some centres unmarked) [Compound 907], the IC50 in the assay on MV4;11 cells (setting [1]) was at most 0.1 µM; with Daudi cells (setting [2]), at most 0.1 µM; with NCIH82 cells (setting [3]) it was at most 1 µM; in the assay with HT-29 cells (HT-29 cells, 72 h), 0.3 to 1 µM; in the assay with U-87MG cells (U-87MG cells), 0.1 to 0.5 µM.
In the case of `CC[C@@H]1C(=O)N(C)c2cnc(Nc3ccc(C(=O)NC4CCN(CCOCCCN(C)CCC#Cc5cccc6c5CN(C5CCC(=O)NC5=O)C6=O)CC4)cc3OC)nc2N1C1CCCC1` (some centres unmarked) [Compound 916], the half-maximal inhibitory concentration (IC50) in the assay with MV4;11 cells (setting [1]) is at most 0.1 µM; in the assay with Daudi cells (setting [2]), at most 0.1 µM; in the assay on NCIH82 cells (setting [3]), at most 1 µM; in the assay on HT-29 cells (HT-29 cells, 72 h), at most 0.3 µM; in the assay with U-87MG cells (U-87MG cells), 0.1 to 0.5 µM.
As for `CC[C@@H]1C(=O)N(C)c2cnc(Nc3ccc(C(=O)NCCCOCCCNCCC#Cc4cccc5c4CN(C4CCC(=O)NC4=O)C5=O)cc3OC)nc2N1C1CCCC1` (some centres unmarked) [Compound 912], the IC50 in the assay on MV4;11 cells (setting [1]) is at most 0.1 µM; in the assay with Daudi cells (setting [2]) it was at most 0.1 µM; in the assay on NCIH82 cells (setting [3]), at most 1 µM; with HT-29 cells (HT-29 cells, 72 h) it was 0.3 to 1 µM; in the assay on U-87MG cells (U-87MG cells), at most 0.1 µM.
For `CNC(=O)c1ccccc1Nc1nc(Nc2ccc(C3CCN(C(=O)N[C@H]4CC[C@@H](NCCC#Cc5ccc6c(c5)CN(C5CCC(=O)NC5=O)C6=O)CC4)CC3)cc2)ncc1Cl` (some centres unmarked) [UB-181168], the IC50 with MV4;11 cells (setting [4]) was under 0.01 µM; with Daudi cells (setting [5]), 0.01 to 0.1 µM; with NCIH82 cells (setting [6]), 0.1 to 1 µM; in the assay with MDA-MB-231 cells, 0.1 to 1 µM; in the assay with PC-3, 0.1 to 1 µM.
As for `CNC(=O)c1ccccc1Nc1nc(Nc2ccc(N3CCN(C(=O)NC4CCC(NCCC#Cc5cccc6c5CN(C5CCC(=O)NC5=O)C6=O)CC4)CC3)cc2)ncc1Cl` (centres unmarked) [UB-181187], the concentration for half-maximal inhibition (IC50) in the assay on MV4;11 cells (setting [4]) is 0.01 to 0.1 µM; in the assay on Daudi cells (setting [5]) it was over 1 µM; with NCIH82 cells (setting [6]) it was 0.1 to 1 µM; in the assay on MDA-MB-231 cells it was over 1 µM; with PC-3, 0.01 to 0.1 µM.
Consider `CNC(=O)c1ccccc1Nc1nc(Nc2ccc(C3CCN(C(=O)N[C@H]4CC[C@H](NCCC#Cc5ccc6c(c5)CN(C5CCC(=O)NC5=O)C6=O)CC4)CC3)cc2)ncc1Cl` (some centres unmarked) [UB-181137], for which the IC50 in the assay on MV4;11 cells (setting [4]) was under 0.01 µM; in the assay with Daudi cells (setting [5]), 0.1 to 1 µM; in the assay on NCIH82 cells (setting [6]), 0.1 to 1 µM; in the assay on MDA-MB-231 cells, 0.1 to 1 µM; in the assay with PC-3 it was 0.01 to 0.1 µM.
`CNC(=O)c1ccccc1Nc1nc(Nc2ccc(N3CCN(C(=O)NCCCOCC(O)COCC#Cc4ccc5c(c4)CN(C4CCC(=O)NC4=O)C5=O)CC3)cc2)ncc1Cl` (centres unmarked) [UB-181076]: the IC50 is under 0.01 µM in the assay on MV4;11 cells (setting [4]); 0.01 to 0.1 µM with Daudi cells (setting [5]); 0.1 to 1 µM in the assay on NCIH82 cells (setting [6]); over 1 µM in the assay on MDA-MB-231 cells; over 1 µM in the assay on PC-3.
Consider `CNC(=O)c1ccccc1Nc1nc(Nc2ccc(N3CCN(C(=O)N[C@H]4CC[C@@H](NCCOCCC#Cc5ccc6c(c5)CN(C5CCC(=O)NC5=O)C6=O)CC4)CC3)nc2)ncc1Cl` (some centres unmarked) [UB-181142], for which the IC50 is under 0.01 µM with MV4;11 cells (setting [4]); 0.1 to 1 µM in the assay on Daudi cells (setting [5]); 0.1 to 1 µM in the assay with NCIH82 cells (setting [6]); 0.1 to 1 µM in the assay with MDA-MB-231 cells; 0.1 to 1 µM in the assay with PC-3.

(Values after US20230210999A1, “TARGETED PROTEASE DEGRADATION (TED) PLATFORM” (EUBULUS BIOTHERAPEUTICS INC., priority 2020, published 2023).)
